ChEMBL document CHEMBL1155972, “From natural products to achiral drug prototypes: potent thrombin inhibitors based on P2/P3 dihydropyrid-2-one core motifs” (Bioorg Med Chem Lett, 2009)

Key:
[1] = target: Prothrombin (Homo sapiens, UniProt P00734); test: Inhibition of human thrombin
[2] = Inhibition of bovine trypsin; set-up: species or system Bos taurus
[3] = Dissociation constant, pKa of the compound; assay type: physicochemical

Row | IC50 [1] [nM] | IC50 [2] [nM] | pKa [3] | SMILES
1 | 915 | 8.2 |  | CC1=C(CC(=O)NCc2ccc(C(=N)N)cc2)C(=O)N(NS(=O)(=O)c2cccc3ccccc23)CC1
2 | 1.6 |  |  | CC(C)[C@@H](Cl)[C@@H](NC(=O)[C@H](O)Cc1ccccc1)C(=O)N1[C@H](C(=O)NCc2ccc(C(=N)N)cc2)C[C@@H]2CCCC[C@@H]21
3 | 44 | 117 |  | COc1cc(C)ccc1S(=O)(=O)NN1CCC(C)=C(CC(=O)NCc2ccc(C(=N)N)cc2)C1=O
4 |  | 5770 | 5.9 | Cc1ccn(NS(=O)(=O)c2ccccc2)c(=O)c1CC(=O)NCc1ccc(C(=N)N)cc1
5 | 46 |  |  | CO[C@H](COS(=O)(=O)[O-])C(=O)N[C@H](CC(C)C)C(=O)N1[C@H](C(=O)NCCC2=CC[N+](=C(N)N)C2)C[C@@H]2C[C@H](O)[C@@H](O)C[C@@H]21 [DYSINOSIN A]
6 | 3960 | 14900 |  | Cc1ccn(NS(=O)(=O)Cc2ccccc2)c(=O)c1CC(=O)NCc1ccc(C(=N)N)cc1
7 |  | 15600 |  | COc1cccc(S(=O)(=O)Nn2ccc(C)c(CC(=O)NCc3ccc(C(=N)N)cc3)c2=O)c1
8 |  | 7130 |  | Cc1ccc(C)c(S(=O)(=O)Nn2ccc(C)c(CC(=O)NCc3ccc(C(=N)N)cc3)c2=O)c1
9 | 6 | 374 | 8.7 | CC1=C(CC(=O)NCc2ccc(C(=N)N)cc2)C(=O)N(NS(=O)(=O)c2cc(C)ccc2C)CC1
10 | 106 | 683 |  | CC1=C(CC(=O)NCc2ccc(C(=N)N)cc2)C(=O)N(NS(=O)(=O)c2ccc(Cl)cc2F)CC1
11 | 5.8 |  |  | CO[C@H](COS(=O)(=O)[O-])C(=O)N[C@@H](C(=O)N1[C@H](C(=O)NCCC2=CC[N+](=C(N)N)C2)C[C@@H]2C[C@H](O)[C@@H](O)C[C@@H]21)[C@H](Cl)C(C)C [CHLORODYSINOSIN A]
12 | 10 | 1250 |  | CC1=C(CC(=O)NCc2ccc(C(=N)N)cc2)C(=O)N(NS(=O)(=O)c2cc(Cl)ccc2Cl)CC1
13 | 3.4 |  |  | N=C(N)c1ccc(CNC(=O)[C@@H]2C[C@@H]3CCCC[C@@H]3N2C(=O)[C@H](NC(=O)[C@H](O)Cc2ccccc2)C(C2CCCCC2)C2CCCCC2)cc1
14 | 42 | 766 |  | CC1=C(CC(=O)NCc2ccc(C(=N)N)cc2)C(=O)N(NS(=O)(=O)c2ccccc2)CC1
15 | 11 | 860 | 8.8 | COc1cccc(S(=O)(=O)NN2CCC(C)=C(CC(=O)NCc3ccc(C(=N)N)cc3)C2=O)c1
16 | 17100 | 5.8 |  | Cc1ccn(NS(=O)(=O)c2cccc3ccccc23)c(=O)c1CC(=O)NCc1ccc(C(=N)N)cc1
17 | 3.3 |  |  | CC[C@@H](C)[C@@H](NC(=O)[C@H](O)Cc1ccccc1)C(=O)N1[C@H](C(=O)NCc2ccc(C(=N)N)cc2)C[C@@H]2CCCC[C@@H]21
18 |  | 2020 | 6.7 | COc1cc(C)ccc1S(=O)(=O)Nn1ccc(C)c(CC(=O)NCc2ccc(C(=N)N)cc2)c1=O

Row | SMILES | IC50 [1] [nM] | IC50 [2] [nM] | pKa [3]
19 | CC1=C(CC(=O)NCc2ccc(C(=N)N)cc2)C(=O)N(NS(=O)(=O)c2c(C)cccc2Cl)CC1 | 3 | 286 | 
